17 compounds from patent US20230348453A1, “HALOGENATED-HETEROARYL AND OTHER HETEROCYCLIC KINASE INHIBITORS, AND USES THEREOF” (iOmx Therapeutics AG, priority 2020, published 2023) can be followed below.

Like-named read-outs stand apart in the source and are kept apart here.

The target in data set [1] is T1, SIK3 (Homo sapiens (Human), UniProt Q9Y2K2). The experiment in a line: SIK3 kinase inhibition (IC50).
Data set [2] concerns the target MDR1 (P-gp) (Homo sapiens (Human), UniProt P08183). The experiment in a line: MDR1-MDCK effective efflux assay. The conditions noted are these: dog; for Papp: MDCK-MDR1; for efflux ratio: Table 5.1B.
The nature of data set [3]: in vitro. The conditions noted are these: human, microsomes.
The nature of data set [4]: Murine plasma protein binding. The conditions noted are these: for recovery at 4 h: mouse, plasma.
A short description of data set [5]: in vitro. To be noted: mouse, microsomes.
A short description of data set [6]: Human hepatocyte stability. In kind it is in vitro ADME. The conditions noted are these: human, hepatocytes; for half-life: read-out: Human hepatocyte stability, Half-life; for microsomal CLint: read-out: Human hepatocyte stability, Intrinsic clearance.
Data set [7] can be described thus: Mouse hepatocyte stability. It is filed as in vitro ADME. To be noted: hepatocytes; for microsomal CLint: read-out: Mouse hepatocyte stability, Intrinsic clearance.
Data set [8] is described as follows: Human plasma-protein binding. To be noted: for recovery at 4 h: human, plasma.
Data set [9] in a line: MDCK wild type permeability/efflux. The conditions noted are these: dog.
In data set [10] the target is SIK2 (Homo sapiens (Human), UniProt Q9H0K1). In words: SIK2 kinase inhibition (IC50).
The nature of data set [11]: Screening PK in mice after 30 mg/kg po. To be noted: for Cmax at 2 h / concentration at 6 h: mouse, plasma, po, 30 mg/kg.
Data set [12] addresses SRC (GST-HIS-tag) (Homo sapiens (Human), UniProt P12931). It is filed as biochemical.
The target of data set [13] is T1, SIK3. To be noted: read-out: SIK3 IC50.
For data set [14] the following is noted: microsomes.
The conditions of data set [15]: microsomes. This is another data set of the same source.
For data set [16] the following is noted: mouse, in vivo, po, 30 mg/kg.
Data set [17] concerns MC38 murine tumour cell line. In words: TNF-sensitised cell viability assay (CellTiter-Glo). The conditions noted are these: read-out: MC38 IC50 (nM at 100 ng/mL TNF); 100 ng/mL TNF, 72 h.
Where [18] appears, read: MDCK-MDR1, MDCK-MDR1 cells, Mean Efflux Ratio (MDR1).
Setting [19] is: MDCK-MDR1, P-gP driven efflux ratio (MDR1/wt).
Setting [20] is: read-out: Kinase: IC50 (nM) SIK2.
[21] abbreviates: Free plasma concentration after 6 h (nM), mice, 30 mg/kg po, 6 h.
The mark [22] stands for this setting: Plasma concentration after 6 h (nM), mice, 30 mg/kg po, 6 h.

`Cc1nc(Nc2ncc(C(=O)Nc3c(CF)csc3Cl)s2)cc(N2CCN(C)C(C)C2)n1` (single isomer, unassigned) [Compound E10-Ent-II, N-(2-chloro-4-(fluoromethyl)thiophen-3-yl)-2-((6-(3,4-dimethylpiperazin-1-yl)-2-methylpyrimidin-4-yl)amino)thiazole-5-carboxamide]: the “IC50 against SIK3 relative to IC50 of E10-Ent-I” value in [1] (separated enantiomers) is reported as “approximately half”.
Consider `Cc1nc(Nc2ncc(C(=O)Nc3c(CF)csc3Cl)s2)cc(N2CCCN(C)CC2)n1` [Compound E11, N-(2-chloro-4-(fluoromethyl)thiophen-3-yl)-2-((2-methyl-6-(4-methyl-1,4-diazepan-1-yl)pyrimidin-4-yl)amino)thiazole-5-carboxamide], for which the Papp in [2] was found to be 3 ×10⁻⁶ cm/s; in [9] it was 8 ×10⁻⁶ cm/s. For the same compound, the efflux ratio was 61 in data set [2] (setting [18]), 24 in data set [2] (setting [19]) and 2.6 in data set [9]. Further, the half-life in [3] amounted to 19 min; in data set [5] it was 21 min; in data set [6], 26 min; in [7], 56 min. Also, the microsomal CLint in data set [3] turned out to be 72 µL/min/mg; in data set [5], 66 µL/min/mg; in data set [6], 55 µL/min/mg; in [7] it was 25 µL/min/mg. Moreover, the “Murine plasma protein binding, Percentage unbound (%)” value in data set [4] (Table 5.1A) was 1%. The recovery at 4 h in [4] is 98%; in [8], 77%. For the same compound, in data set [8] (Table 5.1A), the “Human plasma-protein binding, Percentage unbound (%)” value came to 3%. For the same compound, the IC50 in [1] is 20 to 50 nM; in data set [10] (setting [20]), less than 10 nM. In [11] (mice, 30 mg/kg po, 6 h), the “fold improvement of free serum concentration over C7” value was 2 fold. In addition, in data set [11] (mice, 30 mg/kg po, 6 h), the “fold improvement of total serum concentration over C7” value was 3.1 fold. In addition, the Cmax at 2 h in [11] was 487 ng/mL. In addition, the concentration at 6 h in data set [11] (setting [21]) was determined as 7.7 nM; in [11] (setting [22]) it was 219 nM.
For `Cc1nc(Nc2ncc(C(=O)Nc3c(C)ccnc3C)s2)cc(N2CCN(CCO)CC2)n1` [Compound C1, N-(2,4-dimethylpyridin-3-yl)-2-((6-(4-(2-hydroxyethyl)piperazin-1-yl)-2-methylpyrimidin-4-yl)amino)thiazole-5-carboxamide], the IC50 in [12] is less than 1.5 nM; in [13], 867 nM.
Compound `Cc1nc(Nc2ncc(C(=O)Nc3c(C)cncc3Cl)s2)cc(N2CCN(CCO)CC2)n1` [Compound C4, N-(3-chloro-5-methylpyridin-4-yl)-2-((6-(4-(2-hydroxyethyl)piperazin-1-yl)-2-methylpyrimidin-4-yl)amino)thiazole-5-carboxamide] had a Mouse liver microsomal stability, Intrinsic clearance (L/min/mg) in data set [14] of 38 µL/min/mg. Besides, the half-life in data set [3] is 12 min; in data set [5], 37 min. The results for the IC50 in data set [12] and in data set [13] were less than 1.5 nM and 677 nM, respectively. Further, the “Murine plasma protein binding, Percentage unbound (%)” value in data set [4] (Table 5A) worked out at 14%. Besides, the “Human plasma-protein binding, Percentage unbound (%)” value in data set [8] (Table 5A) came to 2%. In data set [15], the Human liver microsomal stability, Intrinsic clearance was 115 µL/min/mg.
On to `Cc1nc(Nc2ncc(C(=O)Nc3c(C(F)F)csc3Cl)s2)cc(N2CCN(C)CC2)n1` [Compound E13, N-(2-chloro-4-(difluoromethyl)thiophen-3-yl)-2-((2-methyl-6-(4-methylpiperazin-1-yl)pyrimidin-4-yl)amino)thiazole-5-carboxamide], for which the IC50 in data set [1] (read-out: Kinase: IC50 (nM) SIK3) was less than 20 nM; in [10] (setting [20]) it was less than 10 nM.
For `Cc1nc(Nc2ncc(C(=O)Nc3cccnc3C)s2)cc(N2CCN(CCO)CC2)n1` [Compound C6, 2-((6-(4-(2-hydroxyethyl)piperazin-1-yl)-2-methylpyrimidin-4-yl)amino)-N-(2-methylpyridin-3-yl)thiazole-5-carboxamide], the values for the IC50 in data set [12] and in data set [13] were less than 1.5 nM and 987 nM, respectively.
`Cc1nc(Nc2ncc(C(=O)Nc3c(CF)csc3Cl)s2)cc(N2CCN(CCO)CC2)n1` [Compound E3, N-(2-chloro-4-(fluoromethyl)thiophen-3-yl)-2-((6-(4-(2-hydroxyethyl)piperazin-1-yl)-2-methylpyrimidin-4-yl)amino)thiazole-5-carboxamide]: the Papp in [2] came out at 2 ×10⁻⁶ cm/s; in data set [9], 7 ×10⁻⁶ cm/s. For the same compound, the values for the efflux ratio in data set [2] (setting [18]), in data set [2] (setting [19]) and in [9] were 53, 12 and 4.3, respectively. For the same compound, the half-life in data set [3] was 16 min; in [5], 18 min; in data set [6] it was 34 min; in data set [7], 63 min. Further, the microsomal CLint was 86 µL/min/mg in data set [3], 76 µL/min/mg in data set [5], 41 µL/min/mg in data set [6] and 22 µL/min/mg in data set [7]. Moreover, the “Murine plasma protein binding, Percentage unbound (%)” value in data set [4] (Table 5.1A) was found to be 4%. Besides, the recovery at 4 h in data set [4] was determined as 89%; in data set [8] it was 76%. Also, the “Human plasma-protein binding, Percentage unbound (%)” value in data set [8] (Table 5.1A) is 2%. For the same compound, the values for the IC50 in data set [1] and in data set [10] (setting [20]) were 20 to 50 nM and less than 10 nM, respectively. In addition, the Cmax at 2 h in data set [11] came out at 889 ng/mL. Besides, the results for the concentration at 6 h in data set [11] (setting [21]) and in [11] (setting [22]) were 3.7 nM and 73 nM, respectively.
For the compound `CC(=O)N1CCN(c2cc(Nc3ncc(C(=O)Nc4c(C)csc4Cl)s3)nc(C)n2)CC1` [Compound D8], the IC50 in data set [13] is roughly 150 nM.
For `Cc1nc(Nc2ncc(C(=O)Nc3c(Cl)csc3Cl)s2)cc(N2CCN(CCO)CC2)n1` [Compound D7], in data set [16], the “Free concentration (nM) at 2 hours” value amounted to 43 nM, the “Free concentration (nM) at 6 hours” value is 5 nM and the “Free concentration (nM) at 12 hours” value was determined as 1.10 nM.
As for `Cc1nc(Nc2ncc(C(=O)Nc3c(CF)csc3Cl)s2)cc(N2CCNC(=O)C2)n1` [Compound E12, N-(2-chloro-4-(fluoromethyl)thiophen-3-yl)-2-((2-methyl-6-(3-oxopiperazin-1-yl)pyrimidin-4-yl)amino)thiazole-5-carboxamide], the figures for the IC50 in [1] and in data set [10] (setting [20]) were 50 to 100 nM and less than 20 nM, respectively.
On to `Cc1nc(Nc2ncc(C(=O)Nc3c(C(F)(F)F)csc3Cl)s2)cc(N2CCN(CCO)CC2)n1` [Compound E5, N-(2-chloro-4-(trifluoromethyl)thiophen-3-yl)-2-((6-(4-(2-hydroxyethyl)piperazin-1-yl)-2-methylpyrimidin-4-yl)amino)thiazole-5-carboxamide], for which the IC50 lay in the range of 50 to 100 nM in data set [1] and 20 to 50 nM in data set [10].
As to `Cc1nc(Nc2ncc(C(=O)Nc3c(Cl)csc3F)s2)cc(N2CCN(C)CC2)n1` [Compound E15, N-(4-chloro-2-fluorothiophen-3-yl)-2-((2-methyl-6-(4-methylpiperazin-1-yl)pyrimidin-4-yl)amino)thiazole-5-carboxamide], the IC50 was 20 to 50 nM in data set [1] and less than 20 nM in data set [10] (setting [20]).
Regarding `Cc1nc(Nc2ncc(C(=O)Nc3c(C)cncc3C)s2)cc(N2CCN(CCO)CC2)n1` [Compound C5, N-(3,5-dimethylpyridin-4-yl)-2-((6-(4-(2-hydroxyethyl)piperazin-1-yl)-2-methylpyrimidin-4-yl)amino)thiazole-5-carboxamide], the figures for the IC50 in data set [12] and in data set [13] were less than 1.5 nM and 340 nM, respectively.
`Cc1nc(Nc2ncc(C(=O)Nc3c(Cl)csc3C)s2)cc(N2CCN(CCO)CC2)n1` [Compound D1]: in data set [16], the “Free concentration (nM) at 2 hours” value came to 80 nM, the “Free concentration (nM) at 6 hours” value is recorded as 4 nM and the “Free concentration (nM) at 12 hours” value amounted to 2.14 nM. Also, the IC50 in data set [17] is less than 200 nM.
As to `Cc1nc(Nc2ncc(C(=O)Nc3c(Cl)csc3F)s2)cc(N2CCN(CCO)CC2)n1` [Compound E2, N-(4-chloro-2-fluorothiophen-3-yl)-2-((6-(4-(2-hydroxyethyl)piperazin-1-yl)-2-methylpyrimidin-4-yl)amino)thiazole-5-carboxamide], the IC50 in [1] is 50 to 100 nM; in data set [10] (setting [20]) it was less than 10 nM.
Turning to `Cc1nc(NCCO)cc(Nc2ncc(C(=O)Nc3c(Cl)ccnc3C)s2)n1` [Compound C11, N-(4-chloro-2-methylpyridin-3-yl)-2-((6-((2-hydroxyethyl)amino)-2-methylpyrimidin-4-yl)amino)thiazole-5-carboxamide], the IC50 in [12] was less than 1.5 nM; in [13], 1510 nM.
As to `Cc1nc(Nc2ncc(C(=O)Nc3c(Br)ccnc3C)s2)cc(N2CCN(CCO)CC2)n1` [Compound C3, N-(4-bromo-2-methylpyridin-3-yl)-2-((6-(4-(2-hydroxyethyl)piperazin-1-yl)-2-methylpyrimidin-4-yl)amino)thiazole-5-carboxamide], the IC50 in data set [13] was 2780 nM.
